In brackets after ≈: the same amount, converted by molar mass. Read-outs that look alike come from different tables or passages of the source.
Columns and labels:
Format in all cases: cell-based
[1] = tested on: test strains; assay: antimicrobial activity in vitro, comparison in words; settings: data are not shown
Description: (§1) Antimicrobial activities of the compounds of the present invention were determined by measuring minimum inhibitory concentration (MIC). Minimum inhibitory concentration was determined by the agar plate dilution method in the following manner.
(§2) Test strains were subjected to seed culture using Sensitivity test broth (STB, Nissui Pharmaceutical) except that the strains belonging to the genus Streptococcus, Branhamella and Haemophilus were cultured on blood agar plate. A 5 μl portion of cell suspension of the test strains having about 10^6 CFU/ml was inoculated into Sensitivity disk agar (SDA, Nissui Pharmaceutical) supplemented with 5% horse blood and incubated at 37° C. for 20 hours. Then, MIC was measured. For comparison, MDM and leucomycin A7 (LM-A7) was also tested.

[2] = tested on: H. influenzae Type b; assay: MIC, agar plate dilution method; settings: Haemophilus influenzae, read-out: Antimicrobial activity (MIC)
Description: as §1, §2

[3] = tested on: S. aureus MS15009/pMS99; assay: MIC, agar plate dilution method; settings: Staphylococcus aureus, MS15009/PMS99, 20 h, read-out: Antimicrobial activity (MIC)
Description: as §1, §2

[4] = tested on: S. aureus 209P JC-1; assay: MIC, agar plate dilution method; settings: Staphylococcus aureus, read-out: Antimicrobial activity (MIC)
Description: as §1, §2

[5] = tested on: S. pneumoniae IP692; assay: MIC, agar plate dilution method; settings: Streptococcus pneumoniae; S. pneumoniae IP692; 37° C., 20 hours; read-out: Antimicrobial activity (MIC)
Description: as §1, §2

[6] = tested on: E. faecalis W-73; assay: MIC, agar plate dilution method; settings: Enterococcus faecalis, W73; E. faecalis W-73; 37° C., 20 hours; read-out: Antimicrobial activity (MIC)
Description: as §1, §2

[7] = tested on: K. pneumoniae PC1602; assay: MIC, agar plate dilution method; settings: Klebsiella pneumoniae, 37° C., 20 hours, read-out: Antimicrobial activity (MIC)
Description: as §1, §2

[8] = tested on: S. aureus MS15009/pMS98; assay: MIC, agar plate dilution method; settings: Staphylococcus aureus, MS15009/PMS98, 20 h, read-out: Antimicrobial activity (MIC)
Description: as §1, §2

[9] = tested on: B. catarrhalis W-0506; assay: MIC, agar plate dilution method; settings: Moraxella catarrhalis, W0506, 37° C., 20 hours, read-out: Antimicrobial activity (MIC)
Description: as §1, §2

[10] = tested on: S. Pyogenes Cook; assay: MIC, agar plate dilution method; settings: Streptococcus pyogenes, 37° C., 20 hours, read-out: Antimicrobial activity (MIC)
Description: as §1, §2

[11] = tested on: H. influenzae 9334; assay: MIC, agar plate dilution method; settings: Haemophilus influenzae; H. influenzae 9334; 37° C., 20 hours; read-out: Antimicrobial activity (MIC)
Description: as §1, §2

[12] = tested on: E. coli NIHJ JC-2; assay: MIC, agar plate dilution method; settings: Escherichia coli, NIHJJC2; E. coli NIHJ JC-2; 37° C., 20 hours; read-out: Antimicrobial activity (MIC)
Description: as §1, §2

[13] = tested on: S. aureus MS15026; assay: MIC, agar plate dilution method; settings: Staphylococcus aureus, 37° C., 20 hours, read-out: Antimicrobial activity (MIC)
Description: as §1, §2

[14] = tested on: S. aureus M133; assay: MIC, agar plate dilution method; settings: Staphylococcus aureus, 37° C., 20 hours, read-out: Antimicrobial activity (MIC)
Description: as §1, §2

[15] = tested on: M. luteus ATCC9341; assay: MIC, agar plate dilution method; settings: Micrococcus luteus; M. luteus ATCC9341; 37° C., 20 hours; read-out: Antimicrobial activity (MIC)
Description: as §1, §2

[16] = tested on: S. aureus M126; assay: MIC, agar plate dilution method; settings: Staphylococcus aureus, read-out: Antimicrobial activity (MIC)
Description: as §1, §2

[17] = tested on: S. aureus MS15027; assay: MIC, agar plate dilution method; settings: Staphylococcus aureus, 37° C., 20 hours, read-out: Antimicrobial activity (MIC)
Description: as §1, §2

[18] = tested on: S. epidermidis ATCC14990; assay: MIC, agar plate dilution method; settings: Staphylococcus epidermidis, 37° C., 20 hours, read-out: Antimicrobial activity (MIC)
Description: as §1, §2

[19] = tested on: B. catarrhalis W-0500; assay: MIC, agar plate dilution method; settings: Moraxella catarrhalis, W0500, 37° C., 20 hours, read-out: Antimicrobial activity (MIC)
Description: as §1, §2

[20] = tested on: S. Pneumoniae Type 1; assay: MIC, agar plate dilution method; settings: Streptococcus pneumoniae; S. Pneumoniae Type 1; 37° C., 20 hours; read-out: Antimicrobial activity (MIC)
Description: as §1, §2

[21] = tested on: Gram-positive bacteria; assay: antimicrobial activity in vitro (summary in words); settings: from Tables 2 and 3
Description: as §1, §2

[22] = H. influenzae Type b, 37° C., 20 hours
[23] = S. aureus 209P JC-1, 37° C., 20 hours
[24] = S. aureus M126, 37° C., 20 hours

| SMILES | MIC [2, 22] | MIC [3] | MIC [4, 23] | MIC [5] | MIC [6] | MIC [7] | MIC [8] | MIC [9] | MIC [10] | MIC [11] | MIC [12] | MIC [13] | MIC [14] | MIC [15] | MIC [16, 24] | MIC [17] | MIC [18] | MIC [19] | MIC [20] | antimicrobial activity on Gram-positive bacteria [21] | other results |
| --- | --- | --- | --- | --- | --- | --- | --- | --- | --- | --- | --- | --- | --- | --- | --- | --- | --- | --- | --- | --- | --- |
| CO[C@@H]1[C@@H](O[C@@H]2O[C@H](C)[C@@H](O[C@H]3C[C@@](C)(OC)[C@@H](OCCC(C)C)[C@H](C)O3)[C@H](N(C)C)[C@H]2O)[C@@H](CC=O)C[C@@H](C)[C@@H](OC(C)=O)/C=C/C=C/C[C@@H](C)OC(=O)C[C@H]1O [(13)] | – | – | – | – | – | – | – | – | – | – | – | – | – | – | – | – | – | – | – | – | antimicrobial activity compared with compound (12) [1]: comparable in the antimicrobial activity to the compound (12) |
| CCO[C@]1(C)C[C@H](O[C@H]2[C@H](N(C)C)[C@@H](O)[C@H](O[C@H]3[C@@H](CC=O)C[C@@H](C)[C@@H](O)/C=C/C=C/C[C@@H](C)OC(=O)C[C@@H](O)[C@@H]3OC)O[C@@H]2C)O[C@@H](C)[C@@H]1OCCC(C)C [(14)] | 12.5 µg/mL (≈ 15.6 µM) | > 100 µg/mL | 0.2 µg/mL (≈ 0.25 µM) | 0.2 µg/mL (≈ 0.25 µM) | 0.78 µg/mL (≈ 0.975 µM) | > 100 µg/mL | 0.39 µg/mL (≈ 0.487 µM) | 0.78 µg/mL (≈ 0.975 µM) | 0.1 µg/mL (≈ 0.125 µM) | 6.25 µg/mL (≈ 7.81 µM) | > 100 µg/mL | > 100 µg/mL | 0.78 µg/mL (≈ 0.975 µM) | 0.05 µg/mL (≈ 0.0625 µM) | > 100 µg/mL | 0.39 µg/mL (≈ 0.487 µM) | 0.78 µg/mL (≈ 0.975 µM) | 0.39 µg/mL (≈ 0.487 µM) | 0.2 µg/mL (≈ 0.25 µM) | strong antimicrobial activity | – |
| CCCO[C@]1(C)C[C@H](O[C@H]2[C@H](N(C)C)[C@@H](O)[C@H](O[C@H]3[C@@H](CC=O)C[C@@H](C)[C@@H](O)/C=C/C=C/C[C@@H](C)OC(=O)C[C@@H](O)[C@@H]3OC)O[C@@H]2C)O[C@@H](C)[C@@H]1OCCC(C)C [(15)] | – | > 100 µg/mL | 0.2 µg/mL (≈ 0.246 µM) | 0.2 µg/mL (≈ 0.246 µM) | 0.78 µg/mL (≈ 0.958 µM) | > 100 µg/mL | 0.39 µg/mL (≈ 0.479 µM) | 0.78 µg/mL (≈ 0.958 µM) | 0.1 µg/mL (≈ 0.123 µM) | 6.25 µg/mL (≈ 7.68 µM) | > 100 µg/mL | > 100 µg/mL | 0.78 µg/mL (≈ 0.958 µM) | 0.1 µg/mL (≈ 0.123 µM) | > 100 µg/mL | 0.39 µg/mL (≈ 0.479 µM) | 0.78 µg/mL (≈ 0.958 µM) | 0.78 µg/mL (≈ 0.958 µM) | 0.2 µg/mL (≈ 0.246 µM) | strong antimicrobial activity | MIC ([2]; 20 h): 50 µg/mL (≈ 61.4 µM) |
| CCC(=O)O[C@H]1[C@H](C)O[C@@H](O[C@H]2[C@H](N(C)C)[C@@H](O)[C@H](O[C@H]3[C@@H](CC=O)C[C@@H](C)[C@@H](O)/C=C/C=C/C[C@@H](C)OC(=O)C[C@@H](O)[C@@H]3OC)O[C@@H]2C)C[C@@]1(C)O [LM-A7, leucomycin A7, reference compound] | 6.25 µg/mL (≈ 8.25 µM) | > 100 µg/mL | – | 0.2 µg/mL (≈ 0.264 µM) | 0.78 µg/mL (≈ 1.03 µM) | > 100 µg/mL | 0.39 µg/mL (≈ 0.515 µM) | 1.56 µg/mL (≈ 2.06 µM) | 0.1 µg/mL (≈ 0.132 µM) | 0.78 µg/mL (≈ 1.03 µM) | > 100 µg/mL | > 100 µg/mL | 0.39 µg/mL (≈ 0.515 µM) | 0.05 µg/mL (≈ 0.066 µM) | – | 0.39 µg/mL (≈ 0.515 µM) | 0.39 µg/mL (≈ 0.515 µM) | 0.78 µg/mL (≈ 1.03 µM) | 0.2 µg/mL (≈ 0.264 µM) | – | MIC ([4]; 209P, 20 h): 0.2 µg/mL (≈ 0.264 µM); MIC ([16]; M126, 20 h): > 100 µg/mL |

Reference: patent US5407918A, “16-membered macrolide derivatives and process for producing the same” (Meiji Seika Kaisha, Ltd., priority 1992, dated 1995)
